Key:
[1] = system: horse thrombin; experiment: Thrombin time (citrate plasma, sphere coagulometer); type: biochemical; settings: control thrombin time ca 24 seconds
Description: A common test in clinical coagulation diagnostics is the thrombin time. This parameter detects the action of thrombin on fibrinogen and the formation of blood clots. Inhibitors of thrombin result in an increased thrombin time
In order to obtain plasma 9 parts fresh blood from healthy donors are mixed with one part sodium citrate solution (0 11 mol/l) and centrifuged at ca 3000 rpm for 10 min at room temperature, The plasma was removed by pipette and can be stored for ca 8 h at room temperature.
200 μl citrate plasma was incubated for 2 min at 37° C. in a sphere coagulometer (KC10 from the Amelung-Company). 10 μl dimethylsulfoxide (DMSO) or a solution of the active substance in DMSO was added to 190 μl preheated thrombin reagent (Boehringer Mannheim, GmbH. contains ca. 3 U/ml horse thrombin and […]) A stopwatch was started when this 200 μl solution was added to the plasma and the time point at which coagulation starts was determined In the control measurements the thrombin time was ca 24 seconds and was increased by the compound of example 3 depending on the concentration (test concentration/increase of thrombin time 5 μM>300*sec: 0 5 μM/96 sec. 0 05 μM/9 sec) [* the experiment was stopped after 5 minutes]

[2] = biological target: isolated activated GpIIb/IIIa receptor (Homo sapiens, UniProt P05106+P08514); experiment: GpIIb/IIIa fibrinogen ELISA; settings: fibrinogen binding to coated GpIIb/IIIa receptor; read-out: gpIIb/IIIa-Inhibition IC50
isolated activated GpIIb/IIIa receptor, sequence (P08514 32-887 limits assumed): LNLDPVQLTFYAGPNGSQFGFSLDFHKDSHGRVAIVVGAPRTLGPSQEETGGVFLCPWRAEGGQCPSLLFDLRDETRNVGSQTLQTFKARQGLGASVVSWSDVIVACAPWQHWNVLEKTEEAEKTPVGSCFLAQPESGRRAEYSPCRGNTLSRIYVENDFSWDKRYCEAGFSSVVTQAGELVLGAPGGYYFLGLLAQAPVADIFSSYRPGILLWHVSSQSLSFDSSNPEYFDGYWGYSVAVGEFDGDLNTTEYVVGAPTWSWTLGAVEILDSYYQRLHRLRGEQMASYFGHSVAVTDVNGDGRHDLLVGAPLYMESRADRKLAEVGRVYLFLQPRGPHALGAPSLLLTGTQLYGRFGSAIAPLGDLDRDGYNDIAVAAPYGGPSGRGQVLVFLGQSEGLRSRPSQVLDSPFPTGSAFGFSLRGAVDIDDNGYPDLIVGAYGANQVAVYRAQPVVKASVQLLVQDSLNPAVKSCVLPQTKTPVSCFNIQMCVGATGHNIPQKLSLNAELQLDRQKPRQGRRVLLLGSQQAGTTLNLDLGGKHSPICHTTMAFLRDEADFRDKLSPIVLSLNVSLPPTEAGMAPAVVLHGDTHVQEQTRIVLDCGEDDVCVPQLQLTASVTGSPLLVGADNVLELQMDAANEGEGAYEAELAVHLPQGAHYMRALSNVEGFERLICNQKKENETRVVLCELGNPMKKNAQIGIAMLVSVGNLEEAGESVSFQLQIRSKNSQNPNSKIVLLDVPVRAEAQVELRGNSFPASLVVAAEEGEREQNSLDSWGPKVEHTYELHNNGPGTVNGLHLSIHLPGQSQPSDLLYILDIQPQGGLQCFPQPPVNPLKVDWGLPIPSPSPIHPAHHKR
isolated activated GpIIb/IIIa receptor, sequence (P08514 891-1039 partner limits assumed): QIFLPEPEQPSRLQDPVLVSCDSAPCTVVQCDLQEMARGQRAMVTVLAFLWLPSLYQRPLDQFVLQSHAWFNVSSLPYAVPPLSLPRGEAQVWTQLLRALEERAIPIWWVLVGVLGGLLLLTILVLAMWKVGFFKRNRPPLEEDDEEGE
isolated activated GpIIb/IIIa receptor, sequence (P05106 27-788): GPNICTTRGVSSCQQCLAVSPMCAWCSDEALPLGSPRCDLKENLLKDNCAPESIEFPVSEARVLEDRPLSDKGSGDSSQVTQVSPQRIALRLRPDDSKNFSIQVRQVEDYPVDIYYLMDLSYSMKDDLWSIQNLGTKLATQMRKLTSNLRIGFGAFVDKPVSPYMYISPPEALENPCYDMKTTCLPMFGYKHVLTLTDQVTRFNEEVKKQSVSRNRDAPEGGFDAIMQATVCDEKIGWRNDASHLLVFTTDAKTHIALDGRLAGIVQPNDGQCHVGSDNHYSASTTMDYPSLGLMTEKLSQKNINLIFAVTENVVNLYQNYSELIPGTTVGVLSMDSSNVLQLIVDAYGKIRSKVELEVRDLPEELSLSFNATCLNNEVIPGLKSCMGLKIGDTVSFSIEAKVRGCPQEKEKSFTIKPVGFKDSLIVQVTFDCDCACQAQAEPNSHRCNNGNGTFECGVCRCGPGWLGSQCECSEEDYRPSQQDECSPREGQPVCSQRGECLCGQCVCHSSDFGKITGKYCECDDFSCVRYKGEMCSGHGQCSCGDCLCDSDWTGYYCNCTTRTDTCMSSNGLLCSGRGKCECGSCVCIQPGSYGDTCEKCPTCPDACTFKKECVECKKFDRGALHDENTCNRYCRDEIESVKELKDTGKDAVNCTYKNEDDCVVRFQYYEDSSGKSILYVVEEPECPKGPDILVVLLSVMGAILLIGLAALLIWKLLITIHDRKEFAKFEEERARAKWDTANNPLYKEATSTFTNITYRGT
Description: The GpIlb/Illa fibrinogen Elisa is a modification of assays which are described in the following literature: Nachman, R. L. & Leung, L. L. K. (1982): J. Clin. Invest. 69: 263-269 and Wright, P. S. et al. (1993): Biochem. J. 293:263-267.
Microtitre plates were coated overnight with 2 μg/ml isolated activated GpIIb/IIIa receptor. After unbound receptor had been removed by washing several times the surface of the plates is blocked with 1% casein and it is washed again. The test substance is added at the required concentrations and the plates are incubated for 10 minutes while shaking. The natural ligand of the gpIIb/IIIa receptor, fibrinogen, is added. After incubating for 1 hour unbound fibrinogen is removed by washing several times and the bound fibrinogen is determined by means of a peroxidase-conjugated, anti-fibrinogen monoclonal antibody by measuring the optical density at 405 nm in an ELISA instrument. The inhibition of a fibrinogen-GpIIb/IIIa interaction results in a low optical density. The IC50 value was determined by a concentration/effect curve.

[3] = biological target: T1, human thrombin (Homo sapiens, UniProt P00734); experiment: Thrombin inhibition, kinetic measurement with substrate S-2238; type: biochemical; settings: pH 7 5, 25° C., substrate H-(D)-Phe-Pro-Arg-pNA
T1 construct: purchased Sigma
Description: The kinetic measurements were carried out in 0 1 M phosphate buffer which contained 0 2 M sodium chloride and 0 5 % polyethylene glycol 6000 at a pH=7 5 and 25° C. using the substrate H-(D)-Phe-Pro-Arg-pNA (S-2238 Kabi) and human thrombin (Sigma specific activity=2150 NIH-units/mg) in polystyrene semimicrocuvettes in a total volume of 1 ml
Since the measurement curves obtained in both experiments were linear and parallel, the active substance of formula (I) is a rapid thombin inhibitor. The inhibition constant Ki was determined as follows The substrate was added at concentrations of 100 μM. 50 μM. 30 μM, 20 μM and at each substrate concentration a measurement was carried out without inhibitor and three measurements were carried out in the presence of various concentrations of the inhibitor of formula (I). The reactions were started by addition of thrombin. The increase in absorbance at 405 nm caused by the formation of p-nitroanilide was monitored for a time period of 12 min. Measurement points (time versus absorbance) were transferred to a PC at intervals of 20 sec. […] From one measurement series (constant inhibitor concentration, variable substrate concentrations) Km′ and Vmax were determined by a non-linear fit to the equation [formula]
Finally Ki was determined from the total series of measurements by non-linear fit to the equation [formula]

[4] = biological target: T2, bovine pancreatic trypsin (Bos taurus, UniProt P00760); experiment: Inhibition of trypsin; type: biochemical; settings: measured as described for thrombin, Km=45 μM, read-out: inhibition constant Ki
T2 construct: purchased Sigma; host or cells: bovine pancreas
T2 sequence (P00760 24-246): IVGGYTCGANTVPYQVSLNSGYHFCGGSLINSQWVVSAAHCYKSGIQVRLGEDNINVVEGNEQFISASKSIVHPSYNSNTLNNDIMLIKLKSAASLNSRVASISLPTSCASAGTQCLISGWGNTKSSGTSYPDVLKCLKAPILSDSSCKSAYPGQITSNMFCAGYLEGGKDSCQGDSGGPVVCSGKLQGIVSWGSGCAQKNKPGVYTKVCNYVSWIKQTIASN
Description: 10 mg bovine pancreatic trypsin (Sigma) was dissolved in […] hydrochloric acid and stored in a refrigerator 20 μl thereof was admixed with 980 ul 1 mM hydrochloric acid. 25 μl thereof was used for each measurement. The measurement was carried out as described for thrombin. Km=45 μM.

**Q.** With “HOOC—CH2-D-Cha-(N-cyclopentyl)-Gly-Adc [Example 3]” as the molecule, how does the “increase of thrombin time” value ([1]; test concentration 0 05 μM) read?
**A.** 9 s

**Q.** What about the “increase of thrombin time” value ([1]; test concentration 0 5 μM) of the same molecule?
**A.** 96 s

**Q.** What about the “increase of thrombin time” value ([1]; test concentration 5 μM, experiment stopped after 5 minutes) of the same molecule?
**A.** > 300 s

**Q.** With `N=C(N)N1CC=C(CC(N)C(=O)NCC(=O)N[C@@H](CC(=O)O)C(=O)N[C@@H](Cc2ccccc2)C(N)=O)C1` (stereo partly drawn) [Example 11, Ada-Gly-Asp-Phe-NH2] as the molecule, how does the IC50 [2] read?
**A.** 12.8 µM

**Q.** For `CN[C@H](Cc1ccccc1)C(=O)N1CCC[C@H]1C(=O)NCCC1=CCN(C(=N)N)C1` [Example 4], which “thrombin inhibition (in words)” value [3] is on record?
**A.** inhibits thrombin

**Q.** How did the Ki [4] turn out when `N=C(N)N1CC=C(CCNC(=O)[C@@H]2C[C@@H]3CC[C@@H](O)C[C@@H]3N2C(=O)[C@@H](Cc2ccccc2)NC(=O)[C@H](O)Cc2ccccc2)C1` [Example 1, D-Pla-D-Phe-L-Choi-Adc] was run?
**A.** 0.1 µM

— patent US20020026034A1, “3-AMINOETHYL-N-AMIDINO-2,5-DIHYDROPYRROLE DERIVATIVES HAVING ARGININE MIMETIC PROPERTIES” (priority 1995, published 2002)
